# Experimental data reported in patent US20160361288A1, “PHARMACEUTICAL COMPOSITIONS FOR PREVENTING OR TREATING DIABETIC N[…] ACTIVITY INHIBITOR OF TENC1” (POSTECH ACADEMY-INDUSTRY FOUNDATION, priority 2015, published 2016).
# What was measured:
# [1] = target: T1, TENC1 (Homo sapiens, UniProt Q63HR2, P1246L); assay: Malachite Green assay screening for TENC1 inhibitor (PTPase activity of TENC1); type: biochemical; conditions: TENC1 protein isolated from cells, compared with control; FIG. 8
# T1 construct: made in house; host or cells: cells (type not specified)
# T1 sequence (Q63HR2 1-1409 P1246L): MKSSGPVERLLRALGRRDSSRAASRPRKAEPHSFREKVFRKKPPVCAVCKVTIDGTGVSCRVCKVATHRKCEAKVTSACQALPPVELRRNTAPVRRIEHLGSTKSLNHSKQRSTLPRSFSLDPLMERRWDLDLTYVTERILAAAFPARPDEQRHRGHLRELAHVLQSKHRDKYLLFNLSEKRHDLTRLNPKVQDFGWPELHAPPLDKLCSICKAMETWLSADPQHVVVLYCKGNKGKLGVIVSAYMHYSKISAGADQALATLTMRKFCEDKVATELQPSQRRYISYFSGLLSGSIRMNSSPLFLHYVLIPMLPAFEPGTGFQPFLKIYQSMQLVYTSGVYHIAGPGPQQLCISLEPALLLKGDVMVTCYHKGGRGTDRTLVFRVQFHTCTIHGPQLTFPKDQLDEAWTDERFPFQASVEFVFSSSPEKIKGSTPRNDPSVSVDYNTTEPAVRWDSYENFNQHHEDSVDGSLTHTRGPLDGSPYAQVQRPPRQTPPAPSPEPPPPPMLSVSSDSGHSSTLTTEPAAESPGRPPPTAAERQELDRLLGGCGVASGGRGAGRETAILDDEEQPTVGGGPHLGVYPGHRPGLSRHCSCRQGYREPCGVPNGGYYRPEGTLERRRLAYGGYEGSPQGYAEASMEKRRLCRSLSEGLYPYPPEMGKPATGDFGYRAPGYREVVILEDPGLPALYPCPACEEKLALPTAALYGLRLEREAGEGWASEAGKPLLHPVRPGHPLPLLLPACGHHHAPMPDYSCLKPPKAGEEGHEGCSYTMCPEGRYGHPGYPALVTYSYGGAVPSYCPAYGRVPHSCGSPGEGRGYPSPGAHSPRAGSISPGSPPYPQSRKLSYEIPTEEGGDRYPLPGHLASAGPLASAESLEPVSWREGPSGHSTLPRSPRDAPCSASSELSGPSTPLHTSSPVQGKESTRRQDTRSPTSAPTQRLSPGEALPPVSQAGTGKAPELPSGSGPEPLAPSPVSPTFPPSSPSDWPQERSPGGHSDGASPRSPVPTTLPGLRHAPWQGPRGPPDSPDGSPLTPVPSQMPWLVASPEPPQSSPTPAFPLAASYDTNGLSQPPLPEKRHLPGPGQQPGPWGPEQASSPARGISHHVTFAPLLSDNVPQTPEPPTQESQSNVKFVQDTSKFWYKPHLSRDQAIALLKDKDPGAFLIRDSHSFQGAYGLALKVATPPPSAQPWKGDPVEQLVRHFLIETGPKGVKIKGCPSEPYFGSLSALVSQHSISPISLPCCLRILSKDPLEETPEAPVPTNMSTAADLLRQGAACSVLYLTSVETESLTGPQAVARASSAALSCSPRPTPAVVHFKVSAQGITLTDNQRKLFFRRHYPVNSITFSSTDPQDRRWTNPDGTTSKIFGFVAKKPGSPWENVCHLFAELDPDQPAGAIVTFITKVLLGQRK
# Experimental: According to the above results, it was confirmed that TENC1 overexpressed in a high glucose environment known as a leading cause of diabetic nephropathy inhibits phosphorylation of nephrin caused by dephosphorylation, and induces hypertrophy of the podocyte cell line. For this reason, to inhibit the hypertrophy of the podocyte cell line, screening was performed through a Malachite Green assay for finding a TENC1 inhibitor.
# TENC1 protein isolated from the cells and each of the natural product library candidate compounds were put together for a predetermined time, and the PTPase activity of TENC1 was measured. […] Here, as a positive control, a PTPase inhibitor, sodium vanadate (Na3VO4; NAV) was used. Since there were almost no molecules left in the test tube, the method has a higher probability of discovering a direct regulator, compared with a cellular-level screening method.
# [2] = test system: db/db mouse; assay: Diabetic nephropathy animal model, db/db mouse (fasting serum glucose, kidney weight, proteinuria); type: in vivo; conditions: 300 mg/kg orally daily for 2 weeks
# Experimental: (§1) An effect of DHTS, which is the representative material of the TENC1 inhibitors found through the screening described in Example 5, was identified using a diabetic nephropathy animal model. To this end, as a diabetic nephropathy animal model, a type II diabetic model, that is, a db/db mouse was used, and as a control, a db/m mouse was used. 10 week-old male db/m and db/db mice were divided into three groups including a group in which a vehicle was administered to a db/m mouse, a group in which a vehicle was administered to a db/db mouse, and a group in which 300 mg/kg of DHTS was administered to a db/db mouse for experiments, and the vehicle or drug was orally administered daily for 2 weeks according to each condition. As the vehicle, 1% carboxymethyl cellulose was used.
# First, after the experiment described above, blood was taken from a mouse to measure a fasting serum glucose level. As a result, referring to FIG. 9, it was confirmed that the fasting serum glucose level was not decreased by the administration of DHTS for two weeks.
# Therefore, it was confirmed that DHTS can improve the renal hypertrophy.
# [3] = test system: nephrin; assay: Nephrin phosphorylation in kidney tissue of db/db mouse (immunoprecipitation); type: in vivo; conditions: 300 mg/kg orally daily for 2 weeks, FIG. 12
# Experimental: as §1
# (§2) Further, to investigate whether the above result is obtained by inhibiting TENC1-induced nephrin dephosphorylation and increased mTORC1 signaling, immunoprecipitation and western blotting were performed with a kidney tissue sample extracted from a mouse.
# [4] = test system: mTORC1 signaling; assay: mTORC1 signaling (S6K phosphorylation) in kidney tissue of db/db mouse (western blotting); type: in vivo; conditions: 300 mg/kg orally daily for 2 weeks, FIG. 13
# Experimental: as §1, §2
# [5] = test system: differentiated podocyte; assay: Filtration function of differentiated podocyte under high glucose (protein quantification); type: cell-based; conditions: high glucose condition of 30 mmol/L vs normal glucose 5 mmol/L; FIG. 11B
structure (smiles),measurement,setting,value
"Cc1cccc2c3c(ccc12)C1=C(C(=O)C3=O)[C@@H](C)CO1 [DHTS, (1R)-1,6-dimethyl-1,2-dihydronaphtho[1,2-g][1]benzofuran-10,11-dione]",inhibitory effect on the PTPase activity of TENC1,[1],inhibitory effect
same,fasting serum glucose level,[2]; FIG. 9,not decreased
same,proteinuria (albumin ELISA),"[2]; compared with vehicle db/db mouse, FIG. 11A",significantly reduced
same,kidney weight (renal hypertrophy; ratio of kidney weight to body weight),"[2]; vs vehicle db/db and db/m, FIG. 10",such an increase was not shown
same,nephrin phosphorylation in kidney tissue,[3],recovered
same,S6K phosphorylation (pS6K) in kidney tissue,[4],effectively inhibited
same,filtration function of the podocyte,[5],improved to a level similar to the result obtained under a the normal glucose condition
